Measurements taken from patent publication US20250115628A1, “FLUORINATED FLUOROPHORES” (HOWARD HUGHES MEDICAL INSTITUTE, priority 2023, published 2025).

Experiments:
Type in all cases: cell-based
[1] = test system: U2OS cells stably expressing HaloTag®-histone H2B fusion protein; experiment: Loading experiments with NIR-excited HaloTag® ligands (nuclear fluorescence); details: 200 nM; live cells expressing HaloTag®-histone H2B; excited at λabs
Protocol: (§1) U2OS cells (ATCC) and U2OS cells stably expressing an integrated HaloTag®-histone H2B fusion protein (U2OS·H2B·HaloTag®) were cultured in Dulbecco's modified Eagle medium (DMEM, phenol red-free; Life Technologies) supplemented with 10% (v/v) fetal bovine serum (FBS, Life Technologies), 1 mM GlutaMAX (Life Technologies) and maintained at 37° C. in a humidified 5% (v/v) CO2 environment. These cell lines undergo regular mycoplasma testing by the Janelia Cell Culture Facility. For mitochondrial imaging using the HaloTag® system, U2OS cells were transiently transfected using nucleofection (Lonza) with a plasmid constitutively expressing a HaloTag®-TOMM20 fusion protein, which is located on the outer mitochondrial membrane. For 4^−color imaging, U2OS·H2B·HaloTag® stable cells were transiently transfected by nucleofection with plasmids constitutively expressing a SNAP-tag®-TOMM20 fusion protein, and a GFP-SKL (SKL: serine-lysine-leucine) fusion protein, a prototypical peroxisomal matrix targeting signal. All labeled cells were imaged 18-24 h post-transfection or post-plating.
For loading curve experiments (FIG. 15C), U2OS·H2B·HaloTag® stable cells were incubated with 200 nM HaloTag® ligand conjugated dyes (31HTL, 36HTL, 38HTL, 104HTL, 106HTL, 107HTL, and 108HTL) for 0-4 h at 37° C., washed 3× with dye-free media then fixed with 4% paraformaldehyde in 0.1 M phosphate buffer, pH 7.4 for 15 min at 37° C. Confocal imaging was performed on a Leica Stellaris with an HC PL APO 40×/1.25 glycerol objective using the tunable white light laser (WLL) to excite dyes at their λabs in constant power mode. Fluorescence was quantified as the integrated density of nuclear signals in single-plane images analyzed in FIJI;^82 n=100 nuclear signals per compound.

[2] = test system: U2OS cells stably expressing HaloTag®-histone H2B fusion protein; experiment: Photostability experiments in fixed cells; details: 200 nM; 30 bleach cycles
Protocol: as §1, with “For 4^−color imaging, U2OS·H2B·HaloTag® stable cells were transiently transfected by nucleofection with plasmids constitutively expressing a SNAP-tag®-TOMM20 fusion protein, and a GFP-SKL (SKL: serine-lysine-leucine) fusion protein, a prototypical peroxisomal matrix targeting signal. All labeled cells were imaged 18-24 h post-transfection or post-plating.” left out
For photostability experiments (FIG. 1611), U2OS·H2B·HaloTag® stable cells were incubated with 200 nM HaloTag® ligands (31HTL, 106HTL, and 107HTL) for 3 h at 37° C., washed 3× with dye-free media then fixed with 4% paraformaldehyde in 0.1 M phosphate buffer, pH 7.4 for 15 min at 37° C. […] To measure photobleaching, the tunable white light laser (WLL) was used to excite dyes at their λabs in constant power mode over 30 cycles; n=3 where n indicates the number of separate cellular experiments where the intensity of the entire field of view was measured at the indicated time points. […]

[3] = molecular target: T1, U2OS cells stably expressing HaloTag®-histone H2B fusion protein (Rhodococcus rhodochrous, UniProt P0A3G2, A155T/A167V/A172T/A224E/C128F/C176G/D78G/E160K/E257K/H272N/K175M/K195N/L47V/L88M/N227D/P291S/S58T/T264A/Y273L/Y87F); experiment: Labeling and confocal microscopy using ligands 59HTL and 105HTL; details: 200 nM, 1 h, washed
T1 construct: expressed in transfected cells
Protocol: as §1, with “post-plating. […]” for “post-plating.”

[4] = test system: JM8·N4 mouse embryonic stem cells stably expressing histone H2B-HaloTag® fusion proteins; experiment: Single-particle tracking (SPT) experiments; details: 100 Hz imaging
Protocol: SPT experiments were carried out as previously described.^84 JM8·N4 mouse embryonic stem cells (ESCs) stably expressing histone H2B-HaloTag® fusion proteins were generated by co-expressing the PiggyBac EF1a-H2B-HaloTag®-IRES-Neo vector with the super piggyBac transposase as described previously,85 followed by G418 selection (500 μg/mL) for 2 weeks and verified by FACS sorting/confocal imaging staining with JF549-HaloTag® ligand (84HTL; 100 nM, 30 min). Cells were seeded on 25 mm #1.5 coverglass pre-cleaned with KOH and ethanol and coated with iMatrix-511 (TaKaRa #T304) or rhLaminin-521 (Gibco™ #A^29248) according to the manufacturers' instruction. All live-cell imaging experiments were conducted using an ESC imaging medium composed of FluoroBrite DMEM (ThermoFisher) plus 15% v/v ESC-qualified FBS, 1× GlutaMax, 1×NEAA, 0.1 mM 2^−mercaptoethanol, and LIF. For comparison of 59HTL and 89HTL (FIG. 13E, 13F) the histone H2B-HaloTag® ESCs were stained with 5 nM 59HTL for 1 h or 0.1 nM 89HTL for 15 min at 37° C. with 5% (v/v) CO2 to achieve sparse labeling with approximately equal localizations per region of interest (ROI), and then washed with dye-free media 3× for 30 min each wash For comparison of 40HTL, 44HTL, 1HTL, or 89HTL (FIG. 12A-12G) the histone H2B-HaloTag® ESCs were stained with 1 nM of HaloTag® ligands for 15 min at 37° C. with 5% (v/v) CO2 to achieve sparse labeling, and then washed with dye-free media 3× for 30 min each wash.
To quantify the brightness and photostability of the HaloTag® ligands, labeled cells were mounted onto a high speed motorized Nikon Eclipse Ti-E inverted microscope equipped with the following: 100× Apo TIRF 1.49 NA objective with a correction collar; four excitation laser lines (405/488/561/642 nm) and matching TIRF quad cube (405/488/561/640 nm reflection bands); automatic TIRF illuminator with motorized X axis and manual Y axis for beam positioning and focus: perfect focus 3 system; Triple DU-897 iXon Ultra EMCCD cameras on a Cairn Tri-cam emission splitter with filters 525/50 (GFP) 600/50 (RFP) and 705/72 (Cy5); humidified incubation chamber maintained at 37° C. with 5% v/v CO2 (Tokai Hit). SPT was performed at 100 Hz for the comparison of 59HTL and 89HTL (FIG. 13E, 13F) and 50 Hz for the comparison of 40HTL, 44HTL, 1HTL, or 89HTL (FIG. 12A-12G); the imaging session was performed for ˜5000 frames using 100% of maximal excitation power (˜120 mW at the fiber end before the TIRF unit). […] For the comparison of HaloTag® ligands 59HTL and 89HTL (FIG. 13E, 13F) and the comparison of compounds 40HTL, 44HTL, 1HTL, and […] (FIG. 12A-12G), the fluorophores were excited with a 647 nm laser. To minimize drift during imaging, the incubation chamber was fully thermally equilibrated, and all imaging was conducted in an isolated ultra-clean room with minimal mechanical vibrations. The microscope, laser lines, and camera integration were controlled using the Nikon NIS-Elements software. Cells with obvious movement during acquisition were removed from further analysis. SMT analysis was based on multiple target tracing 86 (MTT) with tracking parameters similar to previous work.^84 For SPT brightness (photon counts/molecule/s), intensity values from sparsely-labeled molecules were analyzed. For the comparison of HaloTag® ligands 59HTL and 89HTL (FIG. 13E, 13F): n=147,298 single-molecule events using 59HTL; n=100,392 single-molecule events using 89HTL. […]

T1 sequence (P0A3G2 other isoform, or with tags, fused parts or gaps with the stated changes): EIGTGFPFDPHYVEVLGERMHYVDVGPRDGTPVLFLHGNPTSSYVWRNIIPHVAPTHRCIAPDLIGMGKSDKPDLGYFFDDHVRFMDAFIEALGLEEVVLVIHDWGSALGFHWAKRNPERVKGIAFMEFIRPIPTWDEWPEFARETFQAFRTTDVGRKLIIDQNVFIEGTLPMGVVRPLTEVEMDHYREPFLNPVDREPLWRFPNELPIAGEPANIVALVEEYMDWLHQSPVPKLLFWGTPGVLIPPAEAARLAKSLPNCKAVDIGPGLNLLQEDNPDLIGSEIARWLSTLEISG

`CCc1cc2c(c3c1=[N+](C)CCC3)[Si](C)(C)c1c(cc3c4c1CCCN4CCC3)C=2c1c(F)c(C(=O)NCCOCCOCCCCCCCl)c(F)c(F)c1C(=O)[O-]` [31HTL, JF698-HaloTag® ligand] was tested, and the “nuclear intensity compared to the other ligands” value [1] was over 3 fold and the “brightness and photostability compared with 107HTL and 106HTL” value [2] was “brighter and more photostable”.

`CCc1cc2c(c3c1=[N+](C)CCC3)C(C)(C)c1cc3c(cc1C=2c1c(F)c(C(=O)NCCOCCOCCCCCCCl)c(F)c(F)c1C(=O)[O-])C(C)CC(C)(C)N3CC` (stereo not drawn) [59HTL, JF657-HaloTag® ligand] was tested, and the “nuclear labeling of histone H2B-HaloTag® in live cells” value [3] was “excellent nuclear staining with little cellular background after washing”, the “SPT brightness (photons/s) compared with 89HTL” value [4] was “significant improvement in brightness” and the “SPT localizations over time” value [4] was “consistent localizations over time”.

In the case of “ATTO 647N-HaloTag® ligand [105HTL, reference compound]”, the “nuclear labeling of histone H2B-HaloTag® in live cells” value [3] was “does not show appreciable labeling in the nucleus”.
